pIC50, pKi: −log10 of the molar value.
Key:
[1] = biological target: Protein phosphatase 3 catalytic subunit alpha (Homo sapiens, UniProt Q08209); parameters: species or system Escherichia coli;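 note: inhibition of calcineurin (PP2B) enzyme activity, measured with DiFMUP as the substrate; in other assays of this panel Not Active means under 50% inhibition at 10 µM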
[2] = DRUGMATRIX: Interleukin IL-1 radioligand binding (ligand: [125I] interleukin 1beta); assay type: cell membranes, Membrane; conditions: nih3t3; Not Active = under 50% inhibition at 10 µM
[3] = biological target: Nitric oxide synthase 1 (Rattus norvegicus, UniProt P29476); assay type: tissue-based, Cerebellum; note: in other assays of this panel Not Active means under 50% inhibition at 10 µM
Nitric oxide synthase 1, sequence (P29476 whole entry): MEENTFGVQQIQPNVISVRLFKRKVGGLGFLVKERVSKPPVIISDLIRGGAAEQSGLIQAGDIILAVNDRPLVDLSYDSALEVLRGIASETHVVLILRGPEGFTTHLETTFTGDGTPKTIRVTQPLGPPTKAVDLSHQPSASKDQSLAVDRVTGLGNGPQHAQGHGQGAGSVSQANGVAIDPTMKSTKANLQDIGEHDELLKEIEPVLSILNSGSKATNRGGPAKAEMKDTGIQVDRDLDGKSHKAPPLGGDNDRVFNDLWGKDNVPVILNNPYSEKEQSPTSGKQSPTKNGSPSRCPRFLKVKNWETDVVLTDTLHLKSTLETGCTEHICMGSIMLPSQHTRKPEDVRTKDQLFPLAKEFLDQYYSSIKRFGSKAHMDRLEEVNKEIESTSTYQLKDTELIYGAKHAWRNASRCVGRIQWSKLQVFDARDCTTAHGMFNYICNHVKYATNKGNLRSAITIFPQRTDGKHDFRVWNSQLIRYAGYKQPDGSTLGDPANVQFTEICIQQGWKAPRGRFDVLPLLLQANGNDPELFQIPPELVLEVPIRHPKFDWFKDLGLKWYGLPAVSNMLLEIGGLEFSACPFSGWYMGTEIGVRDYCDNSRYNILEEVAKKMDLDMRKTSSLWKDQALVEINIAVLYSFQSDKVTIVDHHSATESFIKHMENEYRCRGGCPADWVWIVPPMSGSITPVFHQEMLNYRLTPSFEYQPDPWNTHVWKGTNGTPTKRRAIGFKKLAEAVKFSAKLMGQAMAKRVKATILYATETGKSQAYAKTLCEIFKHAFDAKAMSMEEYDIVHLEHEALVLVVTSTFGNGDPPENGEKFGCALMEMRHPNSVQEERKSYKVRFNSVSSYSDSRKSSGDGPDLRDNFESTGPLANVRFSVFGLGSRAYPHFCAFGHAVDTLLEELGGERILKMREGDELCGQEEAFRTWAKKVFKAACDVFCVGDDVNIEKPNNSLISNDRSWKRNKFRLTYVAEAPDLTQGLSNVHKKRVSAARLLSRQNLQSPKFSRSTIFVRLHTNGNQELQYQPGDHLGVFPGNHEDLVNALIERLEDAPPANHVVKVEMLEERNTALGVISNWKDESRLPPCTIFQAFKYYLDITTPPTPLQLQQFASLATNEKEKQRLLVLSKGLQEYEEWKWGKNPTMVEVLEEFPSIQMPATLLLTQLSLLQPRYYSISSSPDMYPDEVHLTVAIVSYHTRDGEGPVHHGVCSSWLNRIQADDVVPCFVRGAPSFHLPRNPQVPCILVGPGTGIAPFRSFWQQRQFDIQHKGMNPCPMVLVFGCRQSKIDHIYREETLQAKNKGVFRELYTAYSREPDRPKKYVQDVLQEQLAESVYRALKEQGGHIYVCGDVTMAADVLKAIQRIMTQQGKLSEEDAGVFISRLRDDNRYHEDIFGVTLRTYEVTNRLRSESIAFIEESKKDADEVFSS

[4] = biological target: T1, Adenosine receptor A1 (Homo sapiens, UniProt P30542); assay type: cell membranes, CHO, Membrane; conditions: cho;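 note: radioligand binding assay at the adenosine A1 receptor, with DPCPX serving as the labelled ligand; in other assays of this panel Not Active means under 50% inhibition at 10 µM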
T1 sequence (P30542 whole entry): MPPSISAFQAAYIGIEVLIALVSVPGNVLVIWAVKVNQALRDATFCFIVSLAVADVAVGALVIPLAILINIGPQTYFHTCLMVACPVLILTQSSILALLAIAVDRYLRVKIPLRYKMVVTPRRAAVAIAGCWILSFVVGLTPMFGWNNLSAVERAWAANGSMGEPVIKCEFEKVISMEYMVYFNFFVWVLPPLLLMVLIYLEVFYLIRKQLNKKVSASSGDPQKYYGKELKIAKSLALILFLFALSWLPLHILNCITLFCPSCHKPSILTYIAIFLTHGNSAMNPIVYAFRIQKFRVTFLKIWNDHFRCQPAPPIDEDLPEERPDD

[5] = biological target: T2, Neuropeptide Y receptor type 1 (Homo sapiens, UniProt P25929); assay type: cell membranes, Membrane; conditions: sk-n-mc; note: in other assays of this panel Not Active means under 50% inhibition at 10 µM
T2 sequence (P25929 whole entry): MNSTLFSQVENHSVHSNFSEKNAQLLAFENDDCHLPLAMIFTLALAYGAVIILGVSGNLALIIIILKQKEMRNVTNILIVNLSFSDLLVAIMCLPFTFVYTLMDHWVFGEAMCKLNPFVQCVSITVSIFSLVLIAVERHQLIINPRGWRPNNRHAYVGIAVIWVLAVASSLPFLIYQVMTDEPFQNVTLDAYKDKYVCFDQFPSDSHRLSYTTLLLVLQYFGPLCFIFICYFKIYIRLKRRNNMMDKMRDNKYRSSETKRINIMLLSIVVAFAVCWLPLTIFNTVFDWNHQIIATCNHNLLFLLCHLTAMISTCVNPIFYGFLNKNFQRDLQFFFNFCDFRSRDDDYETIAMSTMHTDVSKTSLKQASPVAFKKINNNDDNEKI

[6] = biological target: Receptor tyrosine-protein kinase erbB-2 (Homo sapiens, UniProt P04626); test: biochemical; assay type: cell-based, Insect cells; conditions: insect cells
Receptor tyrosine-protein kinase erbB-2, sequence (P04626 whole entry): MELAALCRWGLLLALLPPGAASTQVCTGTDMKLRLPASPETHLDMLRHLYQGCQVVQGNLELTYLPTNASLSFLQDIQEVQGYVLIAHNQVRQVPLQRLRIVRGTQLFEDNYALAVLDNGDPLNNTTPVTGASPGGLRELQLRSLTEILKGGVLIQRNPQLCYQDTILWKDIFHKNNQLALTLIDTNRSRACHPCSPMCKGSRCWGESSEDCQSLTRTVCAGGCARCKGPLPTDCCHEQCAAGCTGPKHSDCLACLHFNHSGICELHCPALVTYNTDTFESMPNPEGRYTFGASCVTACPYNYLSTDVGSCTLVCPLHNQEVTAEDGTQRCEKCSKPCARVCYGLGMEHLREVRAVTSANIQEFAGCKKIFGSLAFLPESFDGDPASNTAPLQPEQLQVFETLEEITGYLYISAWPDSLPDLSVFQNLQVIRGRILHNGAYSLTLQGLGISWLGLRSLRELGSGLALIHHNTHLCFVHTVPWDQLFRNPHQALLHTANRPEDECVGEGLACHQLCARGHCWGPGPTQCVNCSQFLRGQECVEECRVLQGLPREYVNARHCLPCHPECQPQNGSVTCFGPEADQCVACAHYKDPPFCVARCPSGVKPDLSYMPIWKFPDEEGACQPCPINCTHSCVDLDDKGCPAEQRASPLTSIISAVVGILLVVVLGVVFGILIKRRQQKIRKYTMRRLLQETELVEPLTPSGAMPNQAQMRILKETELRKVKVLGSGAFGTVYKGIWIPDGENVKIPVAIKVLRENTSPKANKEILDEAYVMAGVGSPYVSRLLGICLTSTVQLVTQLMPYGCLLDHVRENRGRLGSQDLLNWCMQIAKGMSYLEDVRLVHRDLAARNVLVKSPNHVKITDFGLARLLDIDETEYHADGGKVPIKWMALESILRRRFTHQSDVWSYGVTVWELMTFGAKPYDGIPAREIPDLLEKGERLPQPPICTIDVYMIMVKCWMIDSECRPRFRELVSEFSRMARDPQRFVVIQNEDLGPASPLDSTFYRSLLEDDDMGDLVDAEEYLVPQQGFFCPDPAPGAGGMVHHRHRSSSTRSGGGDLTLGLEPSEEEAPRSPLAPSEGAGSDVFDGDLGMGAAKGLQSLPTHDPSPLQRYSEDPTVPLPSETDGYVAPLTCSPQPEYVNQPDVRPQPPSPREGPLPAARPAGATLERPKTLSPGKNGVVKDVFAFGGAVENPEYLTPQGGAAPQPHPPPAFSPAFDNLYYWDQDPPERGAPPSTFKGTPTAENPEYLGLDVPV

[7] = biological target: T3, Adenosine receptor A3 (Homo sapiens, UniProt P0DMS8); assay type: cell membranes, CHO-K1, Membrane; conditions: for IC50: cho-k1; for pIC50: read-out: IC50; for pKi: read-out: Ki
T3 sequence (P0DMS8 whole entry): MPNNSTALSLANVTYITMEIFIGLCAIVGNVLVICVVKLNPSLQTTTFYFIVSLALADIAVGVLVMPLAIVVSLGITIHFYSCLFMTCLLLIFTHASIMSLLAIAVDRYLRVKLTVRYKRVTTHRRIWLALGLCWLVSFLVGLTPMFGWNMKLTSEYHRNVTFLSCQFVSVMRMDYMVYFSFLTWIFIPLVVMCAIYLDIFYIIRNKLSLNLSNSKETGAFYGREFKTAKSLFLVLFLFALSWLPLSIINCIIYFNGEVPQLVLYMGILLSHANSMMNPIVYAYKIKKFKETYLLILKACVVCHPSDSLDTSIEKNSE

| SMILES | IC50 [1] | IC50 [2] | Ki [2] | IC50 [3] | IC50 [4] | IC50 [5] | IC50 [6] | IC50 [7] | pIC50 [7] | pKi [7] |
| --- | --- | --- | --- | --- | --- | --- | --- | --- | --- | --- |
| CCOC(=O)n1ccn(C)c1=S [CARBIMAZOLE] | Not Active | Not Active | Not Active | Not Active | Not Active | Not Active | Not Active | Not Active |  |  |
| COc1ccc(Cc2nccc3cc(OC)c(OC)cc23)cc1OC [PAPAVERINE] | Not Active | Not Active | Not Active | Not Active | Not Active | Not Active | Not Active | Not Active |  |  |
| C#C[C@]1(O)CC[C@H]2[C@@H]3CCc4cc(O)ccc4[C@H]3CC[C@@]21C [ETHINYL ESTRADIOL] | Not Active | Not Active | Not Active | Not Active | Not Active | Not Active | Not Active |  | 4.48 | 4.73 |
| C[C@H]([C@](O)(Cn1cncn1)c1ccc(F)cc1F)S(C)(=O)=O [GENACONAZOLE] | Not Active | Not Active | Not Active | Not Active | Not Active | Not Active | Not Active | Not Active |  |  |
| CCOC(=O)C1=C(C)NC(C)=C(C(=O)OC)C1c1cccc(Cl)c1Cl (configuration not stated) [FELODIPINE] | Not Active | Not Active | Not Active | Not Active | Not Active | Not Active | Not Active |  | 5.98 | 6.22 |
| CC(C)C[C@H]1C(=O)N2CCC[C@H]2[C@]2(O)O[C@](NC(=O)[C@@H]3C=C4c5cccc6[nH]c(Br)c(c56)C[C@H]4N(C)C3)(C(C)C)C(=O)N12 [BROMOCRIPTINE] | Not Active | Not Active | Not Active | Not Active | Not Active | Not Active | Not Active | Not Active |  |  |
| CCOC(=O)[C@H](CCc1ccccc1)N[C@@H](C)C(=O)N1CCC[C@H]1C(=O)O | Not Active | Not Active | Not Active | Not Active | Not Active | Not Active | Not Active | Not Active |  |  |
| C[C@@H]1CC[C@H]2[C@@H](C)C(=O)O[C@@H]3O[C@@]4(C)CC[C@@H]1[C@]32OO4 [ARTEMISININ] | Not Active | Not Active | Not Active | Not Active | Not Active | Not Active | Not Active | Not Active |  |  |
| CN1C(=O)CN=C(c2ccccc2)c2cc(Cl)ccc21 [DIAZEPAM] | Not Active | Not Active | Not Active | Not Active | Not Active | Not Active | Not Active | Not Active |  |  |
| Nn1nnc2ccccc21 | Not Active | Not Active | Not Active | Not Active | Not Active | Not Active | Not Active | Not Active |  |  |
| CC(C)(CO)C(O)C(=O)NCCCO (configuration not stated) [PANTHENOL] | Not Active | Not Active | Not Active | Not Active | Not Active | Not Active | Not Active | Not Active |  |  |
| O=C(O)Cc1ccc(-c2ccccc2)cc1 [FELBINAC] | Not Active | Not Active | Not Active | Not Active | Not Active | Not Active | Not Active | Not Active |  |  |
| O=C(O)c1cccnc1 [NIACIN] | Not Active | Not Active | Not Active | Not Active | Not Active | Not Active | Not Active | Not Active |  |  |
| C[C@H](C(=O)O)c1cccc(C(=O)c2ccccc2)c1 [DEXKETOPROFEN] | Not Active | Not Active | Not Active | Not Active | Not Active | Not Active | Not Active | Not Active |  |  |
| CC[C@H]1OC(=O)[C@H](C)[C@@H](O[C@H]2C[C@@](C)(OC)[C@@H](O)[C@H](C)O2)[C@H](C)[C@@H](O[C@@H]2O[C@H](C)C[C@H](N(C)C)[C@H]2O)[C@](C)(OC)C[C@@H](C)C(=O)[C@H](C)[C@@H](O)[C@]1(C)O [CLARITHROMYCIN] | Not Active | Not Active | Not Active | Not Active | Not Active | Not Active | Not Active | Not Active |  |  |

— ChEMBL document CHEMBL1909046, “DrugMatrix in vitro pharmacology data”
